# Target: T1, Androgen Receptor (AR) (Homo sapiens, UniProt P10275, T878A)
# T1 construct: cell based immuno-fluorescence assay using the LNCaP prostate epithelial cell line; endogenous in cells; host or cells: LNCaP clone FGC (ATCC CRL-1740)
# T1 sequence (P10275 1-920 T878A): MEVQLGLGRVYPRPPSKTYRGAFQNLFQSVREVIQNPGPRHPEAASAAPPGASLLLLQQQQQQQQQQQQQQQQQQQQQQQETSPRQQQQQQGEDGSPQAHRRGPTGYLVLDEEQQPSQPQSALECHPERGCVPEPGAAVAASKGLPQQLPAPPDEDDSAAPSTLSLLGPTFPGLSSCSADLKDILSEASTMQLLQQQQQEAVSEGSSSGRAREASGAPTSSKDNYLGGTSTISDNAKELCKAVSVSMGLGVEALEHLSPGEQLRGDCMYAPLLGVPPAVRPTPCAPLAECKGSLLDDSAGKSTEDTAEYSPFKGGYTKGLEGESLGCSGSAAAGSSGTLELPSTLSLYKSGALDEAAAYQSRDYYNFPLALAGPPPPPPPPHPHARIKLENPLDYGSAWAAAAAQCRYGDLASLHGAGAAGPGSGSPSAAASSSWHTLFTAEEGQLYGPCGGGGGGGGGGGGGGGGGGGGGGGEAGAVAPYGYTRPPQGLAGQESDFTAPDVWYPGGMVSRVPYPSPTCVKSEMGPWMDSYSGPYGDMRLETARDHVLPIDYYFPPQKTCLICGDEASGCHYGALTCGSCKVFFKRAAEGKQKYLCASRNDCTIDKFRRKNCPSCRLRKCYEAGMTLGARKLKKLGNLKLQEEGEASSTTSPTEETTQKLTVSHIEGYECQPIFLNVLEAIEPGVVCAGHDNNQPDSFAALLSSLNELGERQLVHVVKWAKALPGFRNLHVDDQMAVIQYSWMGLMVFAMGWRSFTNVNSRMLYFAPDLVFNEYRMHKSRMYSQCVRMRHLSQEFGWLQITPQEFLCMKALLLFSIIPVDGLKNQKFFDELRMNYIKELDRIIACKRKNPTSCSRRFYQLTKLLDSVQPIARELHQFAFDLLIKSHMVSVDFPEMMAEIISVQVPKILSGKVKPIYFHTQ
# Assay: LNCaP Androgen Receptor Down-regulation Cell Assay (immunofluorescence end point)
# Type: cell-based
# Settings: LNCaP prostate carcinoma cells, compound incubation 20-22 hours, 50% reduction of the AR signal; read-out: Androgen Receptor Down-regulation Assay (a) IC50/μM
# Experimental: The ability of compounds to reduce Androgen Receptor (AR) numbers was assessed in a cell based immuno-fluorescence assay using the LNCaP prostate epithelial cell line.
# a) LNCaP Androgen Receptor Down-regulation Cell Assay
# A 5 ml volume of Growth Medium was added to each flask (as above except that 5% (v/v) charcoal stripped FBS (HyClone Code no. SH30068.03) was included instead of 10% (v/v) FBS). Cells were syringed at least twice using a sterile 18G×1.5″ (1.2×40 mm) broad gauge needle and cell density was measured using a haemocytometer.
# Test data reported herein was generated using two different compounds preparation and dosing methods. In method (1) a 10 mM compound stock solution in 100% (v/v) DMSO was serially diluted in 4-fold steps in 100% (v/v) DMSO using a Thermo Scientific Matrix SerialMate. The diluted compounds were then further diluted 1 in 30 in assay media using a Thermo Scientific Matrix PlateMate and a 10 μl aliquot of this dilution was dosed to cells manually using a multi-channel pipette. In method (2) starting with a 10 mM compound stock solution, the Labcyte Echo 550 was used to generate a compound concentration response set diluted in 30 μl of assay media. The Echo 550 is a liquid handler that uses acoustic technology to perform direct microplate-to-microplate transfers of DMSO compound solutions. The system can be programmed to transfer volumes as low as […] in multiple increments between microplates and in so doing generates a serial dilution of compound which is then back-filled to normalise the DMSO concentration across the dilution range. A 10 μl volume of diluted compound is then dosed to cells using a Thermo Scientific Matrix PlateMate.
# Plates were incubated overnight at 37° C., 5% CO2. Wells were then dosed with compound prepared by one of the 2 methods above and further incubated for 20-22 hours at 37° C., 5% CO2. […] This fixative solution was removed and cells were washed with 250 μl of PBS/0.05% (v/v) Tween 20 (PBST) using an automated plate washer. This process was then repeated twice more.
# Immunostaining was performed at room temperature. Cells were permeabilised by the addition of 35 μl of PBS containing 0.5% Tween 20 and incubated for 1 hour at room temperature. Permeabilisation solution was removed and cells were washed with 250 μl of PBST using an automated plate washer. This process was then repeated twice more. 35 μl of Blocking Solution (PBST containing 3% (w/v) Marvel dried skimmed milk (Nestle)) was added to each well and plates were incubated at room temperature for a minimum of 1 hour. […] Then this primary antibody solution was removed from the wells followed by 3×100 μl PBST washes using a plate washer. […] Henceforth, wherever possible, plates were protected from light exposure. The plates were incubated for 1 hour and then the secondary antibody solution was removed from the wells followed by 3×100 ul PBST washes using a plate washer. Then 50 μl of PBST was added to each well and plates were covered with a black plate seal and stored at 4° C. before being read. Plates were read within six hours of completing the immunostaining.
# The Green Fluorescent AR-associated signal in each well was measured using an Acumen Explorer HTS Reader (TTP Labtech Ltd., Cambridge). […] The instrument is a laser-scanning fluorescence microplate cytometer which samples the well at regular intervals and uses threshold algorithms to identify all fluorescent intensities above the solution background without the need to generate and analyse an image. These fluorescent objects can be quantified and provide a measure of the AR levels in cells. Fluorescence dose response data obtained with each compound was exported into a suitable software package (such as Origin) to perform curve fitting analysis. Down-regulation of AR levels was expressed as an IC50 value.
row,Structure (SMILES),DC50
1,"FC(F)C(F)(F)c1nnc2ccc(N3CCN(C(c4ccccc4)c4ccccc4)CC3)nn12 [Example 1, 6-(4-benzhydrylpiperazin-1-yl)-3-(1,1,2,2-tetrafluoroethyl)-[1,2,4]triazolo[4,3-b]pyridazine]",3.4 µM
2,"FC(F)C(F)(F)c1nnc2ccc(N3CCCN(Cc4ccccc4)CC3)nn12 [Example 2, 6-(4-benzyl-1,4-diazepan-1-yl)-3-(1,1,2,2-tetrafluoroethyl)-[1,2,4]triazolo[4,3-b]pyridazine]",8.3 µM
3,"FC(F)c1nnc2ccc(N3CCN(C(c4ccccc4)c4ccccc4)CC3)nn12 [Example 5, 6-(4-benzhydrylpiperazin-1-yl)-3-(difluoromethyl)-[1,2,4]triazolo[4,3-b]pyridazine]",1.6 µM
4,"FC(F)c1nnc2ccc(N3CCCN(Cc4ccccc4)CC3)nn12 [Example 6, 6-(4-benzyl-1,4-diazepan-1-yl)-3-(difluoromethyl)-[1,2,4]triazolo[4,3-b]pyridazine]",7.5 µM
5,"Clc1nnc2ccc(N3CCN(C(c4ccccc4)c4ccccc4)CC3)nn12 [Example 8, 6-(4-benzhydrylpiperazin-1-yl)-3-chloro-[1,2,4]triazolo[4,3-b]pyridazine]",1.7 µM
6,"CSc1nnc2ccc(N3CCN(C(c4ccccc4)c4ccccc4)CC3)nn12 [Example 9, 6-(4-benzhydrylpiperazin-1-yl)-3-methylsulfanyl-[1,2,4]triazolo[4,3-b]pyridazine]",1.7 µM
7,"FC(F)(F)c1nnc2ccc(N3CCN(c4ccc(Br)cn4)CC3)nn12 [Example 11, 6-[4-(5-bromopyridin-2-yl)piperazin-1-yl]-3-(trifluoromethyl)-[1,2,4]triazolo[4,3-b]pyridazine]",2.5 µM
8,"Cc1cc(N2CCN(Cc3ccc(C#N)cc3)CC2)nn2c(C(F)(F)F)nnc12 [Example 12, 4-((4-(8-Methyl-3-(trifluoromethyl)-[1,2,4]triazolo[4,3-b]pyridazin-6-yl)piperazin-1-yl)methyl)benzonitrile]",4.3 µM
9,"Cc1cc2nnc(C(F)(F)F)n2nc1N1CCN(Cc2ccc(C#N)cc2)CC1 [Example 13, 4-((4-(7-Methyl-3-(trifluoromethyl)-[1,2,4]triazolo[4,3-b]pyridazin-6-yl)piperazin-1-yl)methyl)benzonitrile]",8.4 µM
10,"FC(F)(F)c1nnc2ccc(N3CCN(Cc4ccc(Cl)cc4)CC3)nn12 [Example 14, 6-[4-[(4-chlorophenyl)methyl]piperazin-1-yl]-3-(trifluoromethyl)-[1,2,4]triazolo[4,3-b]pyridazine]",0.69 µM
11,"COc1ccc(CN2CCN(c3ccc4nnc(C(F)(F)F)n4n3)CC2)cc1 [Example 15, 6-[4-[(4-methoxyphenyl)methyl]piperazin-1-yl]-3-(trifluoromethyl)-[1,2,4]triazolo[4,3-b]pyridazine]",2.5 µM
12,"Cc1cccc(C)c1N1CCN(c2ccc3nnc(C(F)(F)F)n3n2)CC1 [Example 16, 6-[4-(2,6-dimethylphenyl)piperazin-1-yl]-3-(trifluoromethyl)-[1,2,4]triazolo[4,3-b]pyridazine]",0.77 µM
13,"CC(=O)c1ccc(N2CCN(c3ccc4nnc(C(F)(F)F)n4n3)CC2)cc1 [Example 17, 1-[4-[4-[3-(trifluoromethyl)-[1,2,4]triazolo[4,3-b]pyridazin-6-yl]piperazin-1-yl]phenyl]ethanone]",2.5 µM
14,"FC(F)(F)c1nnc2ccc(N3CCN(c4c(Cl)cncc4Cl)CC3)nn12 [Example 19, 6-[4-(3,5-dichloropyridin-4-yl)piperazin-1-yl]-3-(trifluoromethyl)-[1,2,4]triazolo[4,3-b]pyridazine]",0.52 µM
15,"O=C1NCN(c2ccccc2)C12CCN(c1ccc3nnc(C(F)(F)F)n3n1)CC2 [Example 20, 1-phenyl-8-[3-(trifluoromethyl)-[1,2,4]triazolo[4,3-b]pyridazin-6-yl]-1,3,8-triazaspiro[4.5]decan-4-one]",1.8 µM
16,"O=[N+]([O-])c1ccc(N2CCN(c3ccc4nnc(C(F)(F)F)n4n3)CC2)cc1 [Example 21, 6-[4-(4-nitrophenyl)piperazin-1-yl]-3-(trifluoromethyl)-[1,2,4]triazolo[4,3-b]pyridazine]",0.27 µM
17,"FC(F)(F)c1nnc2ccc(N3CCN(C(c4ccccc4)c4ccccc4)CC3)nn12 [Example 22, 6-(4-benzhydrylpiperazin-1-yl)-3-(trifluoromethyl)-[1,2,4]triazolo[4,3-b]pyridazine]",1.4 µM
18,"FC(F)(F)c1nnc2ccc(N3CCN(CCc4ccccc4)CC3)nn12 [Example 23, 6-(4-phenethylpiperazin-1-yl)-3-(trifluoromethyl)-[1,2,4]triazolo[4,3-b]pyridazine]",0.45 µM
19,"O=C(CN1CCN(c2ccc3nnc(C(F)(F)F)n3n2)CC1)N1CCCCC1 [Example 24, 1-piperidin-1-yl-2-[4-[3-(trifluoromethyl)-[1,2,4]triazolo[4,3-b]pyridazin-6-yl]piperazin-1-yl]ethanone]",> 26 µM
20,"COc1ccc(C(c2ccccc2)N2CCN(c3ccc4nnc(C(F)(F)F)n4n3)CC2)cc1 (centres unmarked) [Example 25, 6-[4-[(4-methoxyphenyl)-phenylmethyl]piperazin-1-yl]-3-(trifluoromethyl)-[1,2,4]triazolo[4,3-b]pyridazine]",1.1 µM
21,"FC(F)(F)c1ccc(C(c2ccccc2)N2CCN(c3ccc4nnc(C(F)(F)F)n4n3)CC2)cc1 (centres unmarked) [Example 26, 6-[4-[phenyl-[4-(trifluoromethyl)phenyl]methyl]piperazin-1-yl]-3-(trifluoromethyl)-[1,2,4]triazolo[4,3-b]pyridazine]",1 µM
22,"Cc1cc(NCC2CC[C@@H]3CN(c4ccc5nnc(C(F)(F)F)n5n4)CCN3C2)c2ccccc2n1 (stereo partly drawn) [Example 28, N-[[(9aR)-2-[3-(trifluoromethyl)-[1,2,4]triazolo[4,3-b]pyridazin-6-yl]-1,3,4,6,7,8,9,9a-octahydropyrido[1,6-a]pyrazin-7-yl]methyl]-2-methylquinolin-4-amine]",2.8 µM
23,"Fc1ccc(N2CCN(c3ccc4nnc(C(F)(F)F)n4n3)CC2)c(F)c1 [Example 29, 6-[4-(2,4-difluorophenyl)piperazin-1-yl]-3-(trifluoromethyl)-[1,2,4]triazolo[4,3-b]pyridazine]",4.2 µM

# Reference: patent US8003649B2 (AstraZeneca AB, priority 2007, dated 2011)
